Assay results reported in US20240124412A1, “IKAROS ZINC FINGER FAMILY DEGRADERS AND USES THEREOF” (Gilead Sciences, Inc., priority 2021, published 2024).
Like-named read-outs stand apart in the source and are kept apart here.

Key:
IKZF2 = molecular target: T1, IKZF2 (Homo sapiens, UniProt Q96SW2+Q9UKS7); test: HiBiT protein tagging assay, in vitro IKZF2 degradation (HEK293); format: cell-based
T1 construct: expressed in transfected cells
How it was run: (§1)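 Flp-In T-REx HEK293 pools stably expressing C-terminal HiBiT-tagged IKZF1 or IKZF2 were induced overnight with 1 μg/ml doxycycline. Cells were then treated with serially diluted compound for 18-24 hr at 37 °C and read by Nano-Glo lytic luminescence. Data were normalized to 0.5% DMSO as POC; EC50 and Dmax (maximum degradation at highest concentration tested) reported.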

IKZF1 = molecular target: T2, IKZF1 (Homo sapiens, UniProt Q13422+Q96SW2); test: HiBiT protein tagging assay, in vitro IKZF1 degradation (HEK293); format: cell-based; conditions: for Dmax: read-out: IKZF1 Dmax (maximum degradation at the highest concentration tested)
T2 construct: expressed in transfected cells
How it was run: as §1

[1] = HEK293, HiBiT assay, HEK293, 18-24 hr incubation, normalized to DMSO control; read-out: IKZF2 Dmax (maximum degradation at the highest concentration tested)
[2] = HiBiT assay, HEK293, 18-24 hr incubation, normalized to DMSO control; read-out: IKZF2 EC50
[3] = HEK293, 18-24 hr incubation, normalized to DMSO control
[4] = HEK293, 18-24 hr incubation, normalized to DMSO control, read-out: IKZF1 EC50

T1 sequence (Q9UKS7 1-500 isoform Q9UKS7-2): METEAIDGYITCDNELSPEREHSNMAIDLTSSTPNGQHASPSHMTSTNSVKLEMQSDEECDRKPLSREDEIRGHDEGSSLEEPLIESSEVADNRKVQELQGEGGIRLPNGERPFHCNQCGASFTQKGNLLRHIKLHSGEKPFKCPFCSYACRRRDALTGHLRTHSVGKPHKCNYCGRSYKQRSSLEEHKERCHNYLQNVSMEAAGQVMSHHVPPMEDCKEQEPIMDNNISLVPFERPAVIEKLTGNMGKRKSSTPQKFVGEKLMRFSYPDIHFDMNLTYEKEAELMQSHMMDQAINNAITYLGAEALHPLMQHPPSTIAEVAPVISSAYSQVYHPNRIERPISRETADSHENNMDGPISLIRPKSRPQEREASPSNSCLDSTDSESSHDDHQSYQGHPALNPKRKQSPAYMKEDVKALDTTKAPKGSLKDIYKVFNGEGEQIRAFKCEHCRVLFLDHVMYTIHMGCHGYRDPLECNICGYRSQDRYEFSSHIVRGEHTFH
T1 sequence (Q96SW2 whole entry): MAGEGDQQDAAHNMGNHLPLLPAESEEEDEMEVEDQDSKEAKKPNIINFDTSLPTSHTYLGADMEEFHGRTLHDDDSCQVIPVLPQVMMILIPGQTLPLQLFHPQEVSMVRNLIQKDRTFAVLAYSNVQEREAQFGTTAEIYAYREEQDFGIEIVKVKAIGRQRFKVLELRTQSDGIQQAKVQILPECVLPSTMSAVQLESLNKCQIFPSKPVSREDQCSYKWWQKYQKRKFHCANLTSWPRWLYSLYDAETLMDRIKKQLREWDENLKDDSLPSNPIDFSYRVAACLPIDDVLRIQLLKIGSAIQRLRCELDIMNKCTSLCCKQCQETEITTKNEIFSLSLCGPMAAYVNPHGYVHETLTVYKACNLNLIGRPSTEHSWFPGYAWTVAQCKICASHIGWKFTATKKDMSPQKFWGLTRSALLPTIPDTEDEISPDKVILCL
T1 sequence (Q16531 whole entry partner): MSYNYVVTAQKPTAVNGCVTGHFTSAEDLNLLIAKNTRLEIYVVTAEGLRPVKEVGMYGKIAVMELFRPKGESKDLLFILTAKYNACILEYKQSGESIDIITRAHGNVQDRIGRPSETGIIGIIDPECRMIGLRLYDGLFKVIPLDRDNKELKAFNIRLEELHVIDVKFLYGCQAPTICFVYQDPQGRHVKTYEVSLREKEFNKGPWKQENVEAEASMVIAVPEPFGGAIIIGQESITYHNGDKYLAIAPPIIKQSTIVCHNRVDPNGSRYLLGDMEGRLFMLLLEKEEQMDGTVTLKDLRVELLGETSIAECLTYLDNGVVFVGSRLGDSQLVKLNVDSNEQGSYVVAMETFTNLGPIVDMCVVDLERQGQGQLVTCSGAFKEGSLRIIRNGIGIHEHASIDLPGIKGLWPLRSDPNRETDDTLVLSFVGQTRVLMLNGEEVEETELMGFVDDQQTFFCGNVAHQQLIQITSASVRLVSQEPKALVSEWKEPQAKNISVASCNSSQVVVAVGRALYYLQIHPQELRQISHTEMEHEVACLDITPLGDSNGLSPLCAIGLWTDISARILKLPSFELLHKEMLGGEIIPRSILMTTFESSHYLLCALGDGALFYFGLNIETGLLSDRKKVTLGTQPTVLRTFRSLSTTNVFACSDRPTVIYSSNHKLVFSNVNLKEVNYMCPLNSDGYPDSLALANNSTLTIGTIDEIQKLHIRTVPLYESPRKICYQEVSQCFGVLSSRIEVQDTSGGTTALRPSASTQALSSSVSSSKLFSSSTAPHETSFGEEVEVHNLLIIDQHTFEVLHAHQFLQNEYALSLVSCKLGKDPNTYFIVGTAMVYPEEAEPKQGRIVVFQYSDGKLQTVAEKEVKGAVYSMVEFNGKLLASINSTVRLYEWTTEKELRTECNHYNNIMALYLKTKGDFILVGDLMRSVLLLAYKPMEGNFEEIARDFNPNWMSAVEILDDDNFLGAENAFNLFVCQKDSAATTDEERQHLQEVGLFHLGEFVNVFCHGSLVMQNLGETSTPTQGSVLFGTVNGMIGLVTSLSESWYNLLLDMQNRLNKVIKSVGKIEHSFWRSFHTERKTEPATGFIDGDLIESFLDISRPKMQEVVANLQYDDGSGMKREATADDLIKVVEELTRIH
T2 sequence (Q13422 whole entry): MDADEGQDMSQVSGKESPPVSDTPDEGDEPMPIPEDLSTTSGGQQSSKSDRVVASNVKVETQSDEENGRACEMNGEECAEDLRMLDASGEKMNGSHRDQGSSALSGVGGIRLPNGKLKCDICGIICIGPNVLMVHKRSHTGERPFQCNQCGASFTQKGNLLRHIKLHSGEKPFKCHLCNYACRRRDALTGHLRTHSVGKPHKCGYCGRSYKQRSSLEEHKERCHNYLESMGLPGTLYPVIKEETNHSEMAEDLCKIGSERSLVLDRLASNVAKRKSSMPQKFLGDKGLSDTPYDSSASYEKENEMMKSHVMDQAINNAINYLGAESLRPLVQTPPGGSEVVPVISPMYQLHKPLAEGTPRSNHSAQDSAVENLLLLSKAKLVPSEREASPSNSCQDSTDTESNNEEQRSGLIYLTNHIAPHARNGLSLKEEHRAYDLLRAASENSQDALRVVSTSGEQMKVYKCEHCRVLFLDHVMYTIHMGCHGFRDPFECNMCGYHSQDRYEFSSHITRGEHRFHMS
T2 sequence (Q96SW2 whole entry): as the sequence (Q96SW2 whole entry) above
T2 sequence (Q16531 whole entry partner): as the sequence (Q16531 whole entry partner) above

Row | SMILES | Dmax (IKZF2; [1]) [%] | DC50 (IKZF2; [2]) [nM] | Dmax (IKZF1; [3]) [%] | DC50 (IKZF1; [4]) [nM] | DC50 (IKZF2; read-out: IKZF2 EC50; HiBiT assay, HEK293, 18-24 hr incubation, normalized to DMSO control) [nM] | DC50 (IKZF1; read-out: IKZF1 EC50, HEK293, 18-24 hr incubation, normalized to DMSO control) [nM]
1 | O=C1CCC(N2Cc3cc(CN[C@@H]4CCC[C@H]([C@@H](O)c5ccccc5)C4)ccc3C2=O)C(=O)N1 (some centres unmarked) [Example 135] | 94 | 231 | 92 | 95 | – | –
2 | O=C1CCC(N2Cc3cc(CNC4(c5ccc(F)cc5)CCCCC4)ccc3C2=O)C(=O)N1 (centres unmarked) [Example 153, 3-(5-(((1-(4-fluorophenyl)cyclohexyl)amino)methyl)-1-oxoisoindolin-2-yl)piperidine-2,6-dione] | 36 | – | – | – | 122 | > 1000
3 | C[C@H]1CCCC[C@H]1NCc1ccc2c(c1)CN(C1CCC(=O)NC1=O)C2=O (some centres unmarked) [Example 78] | 81 | 115 | 30 | 1700 | – | –
4 | O=C1CCC(N2Cc3cc(CN[C@@H]4CCCC[C@H]4OCc4ccccc4Cl)ccc3C2=O)C(=O)N1 (some centres unmarked) [Example 145] | 92 | 78 | 31 | 246 | – | –
5 | O=C1CCC(N2Cc3cc(CN[C@@H]4CCCN(Cc5ccccc5)C4)ccc3C2=O)C(=O)N1 (stereo partly drawn) [Example 20, 3-(5-((((R)-1-benzylpiperidin-3-yl)amino)methyl)-1-oxoisoindolin-2-yl)piperidine-2,6-dione] | 97 | 32 | 95 | 7 | – | –
6 | CCCC[C@H]1CC[C@H](NCc2ccc3c(c2)CN(C2CCC(=O)NC2=O)C3=O)CC1 (some centres unmarked) [Example 79] | 69 | 218 | 30 | 169 | – | –
7 | O=C1CCC(N2Cc3cc(CNC4(CCc5ccccc5)CCCCC4)ccc3C2=O)C(=O)N1 (centres unmarked) [Example 152, 3-(1-oxo-5-(((1-phenethylcyclohexyl)amino)methyl)isoindolin-2-yl)piperidine-2,6-dione] | 65 | 172 | – | > 1000 | – | –
8 | O=C1CCC(N2Cc3cc(CN[C@H](CO)Cc4ccccc4)ccc3C2=O)C(=O)N1 (some centres unmarked) [Example 56] | 22 | 525 | 23 | 222 | – | –
9 | O=C1CCC(N2Cc3cc(CNC4CCCC(c5ccccc5)C4)ccc3C2=O)C(=O)N1 (centres unmarked) [Example 50] | 51 | 166 | 30 | 47 | – | –
10 | C[C@@H]1[C@@H](NCc2ccc3c(c2)CN(C2CCC(=O)NC2=O)C3=O)C[C@H]2C[C@@H]1C2(C)C (some centres unmarked) [Example 134] | 89 | 111 | – | > 10000 | – | –
11 | N#C[C@H]1CC[C@@H](NCc2ccc3c(c2)CN(C2CCC(=O)NC2=O)C3=O)CC1 (some centres unmarked) [Example 87] | 89 | 182 | 86 | 84 | – | –
12 | O=C1CCC(N2Cc3cc(CNCCCO)ccc3C2=O)C(=O)N1 (centres unmarked) [Example 55] | 20 | 1300 | 36 | 394 | – | –
13 | O=C1CCC(N2Cc3cc(CN[C@@H]4CCc5ccccc5C4)ccc3C2=O)C(=O)N1 (stereo partly drawn) [Example 14, 3-(1-oxo-5-((((R)-1,2,3,4-tetrahydronaphthalen-2-yl)amino)methyl)isoindolin-2-yl)piperidine-2,6-dione] | 43 | 48 | 35 | 23 | – | –
14 | CCN1CCC(NCc2ccc3c(c2)CN(C2CCC(=O)NC2=O)C3=O)CC1 (centres unmarked) [Example 48, 3-(5-(((1-Ethylpiperidin-4-yl)amino)methyl)-1-oxoisoindolin-2-yl)piperidine-2,6-dione] | 32 | 2800 | 25 | 655 | – | –
15 | O=C1CCC(N2Cc3cc(CN[C@@H]4CC5CCC4CC5)ccc3C2=O)C(=O)N1 (stereo partly drawn) [Example 94, 3-(5-((((R)-bicyclo[2.2.2]octan-2-yl)amino)methyl)-1-oxoisoindolin-2-yl)piperidine-2,6-dione] | 55 | 178 | – | > 10000 | – | –
16 | O=C1CCC(N2Cc3cc(CN[C@@H]4CCC[C@H]([C@H](O)c5ccccc5)C4)ccc3C2=O)C(=O)N1 (some centres unmarked) [Example 136] | 95 | 204 | 93 | 99 | – | –
17 | O=C1CCC(N2Cc3cc(CN[C@H]4CC[C@H](c5ccccc5)CC4)ccc3C2=O)C(=O)N1 (stereo partly drawn) [Example 32, 3-(1-oxo-5-((((1,4-trans)-4-phenylcyclohexyl)amino)methyl)isoindolin-2-yl)piperidine-2,6-dione] | 85 | 71 | 48 | 54 | – | –
18 | O=C1CCC(N2Cc3cc(CNC4CCN(c5ccncc5)CC4)ccc3C2=O)C(=O)N1 (centres unmarked) [Example 37, 3-(1-oxo-5-(((1-(pyridin-4-yl)piperidin-4-yl)amino)methyl)isoindolin-2-yl)piperidine-2,6-dione] | 76 | 1000 | 56 | 667 | – | –
19 | CCCO[C@H]1CC[C@H](NCc2ccc3c(c2)CN(C2CCC(=O)NC2=O)C3=O)CC1 (some centres unmarked) [Example 75] | 90 | 100 | 49 | 127 | – | –
20 | C[C@@H]1CC[C@@H](NCc2ccc3c(c2)CN(C2CCC(=O)NC2=O)C3=O)CN1Cc1ccccc1 (stereo partly drawn) [Example 138, 3-(5-((((3R,6R)-1-benzyl-6-methylpiperidin-3-yl)amino)methyl)-1-oxoisoindolin-2-yl)piperidine-2,6-dione] | 83 | 189 | 92 | 27 | – | –
21 | O=C1CCC(N2Cc3cc(CN[C@H]4CC[C@@H](C(F)(F)F)CC4)ccc3C2=O)C(=O)N1 (some centres unmarked) [Example 85] | 81 | 114 | 44 | 117 | – | –
22 | O=C1CCC(N2Cc3cc(CNCC4CCc5ccccc5C4)ccc3C2=O)C(=O)N1 (centres unmarked) [Example 23, 3-(1-oxo-5-((((1,2,3,4-tetrahydronaphthalen-2-yl)methyl)amino)methyl)isoindolin-2-yl)piperidine-2,6-dione] | 49 | 210 | 86 | 36 | – | –
23 | CC[C@@H]1CCCC[C@H]1NCc1ccc2c(c1)CN(C1CCC(=O)NC1=O)C2=O (some centres unmarked) [Example 149] | 35 | 115 | – | > 1000 | – | –
24 | O=C1CCC(N2Cc3cc(CN[C@@H]4CCC[C@H](C(=O)c5ccccc5)C4)ccc3C2=O)C(=O)N1 (some centres unmarked) [Example 129] | 60 | 193 | 60 | 113 | – | –
25 | O=C1CCC(N2Cc3cc(CNC4CCN(C(=O)c5ccccc5)CC4)ccc3C2=O)C(=O)N1 (centres unmarked) [Example 57] | 96 | 1300 | 77 | 246 | – | –

Further lines, with some results ahead:

Row | Dmax (IKZF2; [1]) [%] | DC50 (IKZF2; [2]) [nM] | Dmax (IKZF1; [3]) [%] | DC50 (IKZF1; [4]) [nM] | SMILES | DC50 (IKZF2; read-out: IKZF2 EC50; HiBiT assay, HEK293, 18-24 hr incubation, normalized to DMSO control) [nM] | DC50 (IKZF1; read-out: IKZF1 EC50, HEK293, 18-24 hr incubation, normalized to DMSO control) [nM]
26 | 72 | 273 | 51 | 185 | O=C1CCC(N2Cc3cc(CNC4CCCC5(CCCC5)C4)ccc3C2=O)C(=O)N1 (centres unmarked) [Example 133] | – | –
27 | 47 | 293 | – | > 1000 | COCC1(NCc2ccc3c(c2)CN(C2CCC(=O)NC2=O)C3=O)CCCCC1 (centres unmarked) [Example 154, 3-(5-(((1-(methoxymethyl)cyclohexyl)amino)methyl)-1-oxoisoindolin-2-yl)piperidine-2,6-dione] | – | –
28 | 92 | 62 | 69 | 91 | CC1(C)CCCC(NCc2ccc3c(c2)CN(C2CCC(=O)NC2=O)C3=O)C1 (centres unmarked) [Example 131] | – | –
29 | 21 | 3300 | – | > 10000 | O=C1CCC(N2Cc3cc(CN[C@H]4CCCC[C@@H]4O)ccc3C2=O)C(=O)N1 (stereo partly drawn) [Example 38, 3-(5-((((1S,2S)-2-hydroxycyclohexyl)amino)methyl)-1-oxoisoindolin-2-yl)piperidine-2,6-dione] | – | –
30 | 47 | 445 | – | > 10000 | O=C1CCC(N2Cc3cc(CNC4(C5CC5)CCCCC4)ccc3C2=O)C(=O)N1 (centres unmarked) [Example 150, 3-(5-(((1-cyclopropylcyclohexyl)amino)methyl)-1-oxoisoindolin-2-yl)piperidine-2,6-dione] | – | –
31 | 71 | 157 | 23 | 107 | C[C@@H]1CCCC[C@H]1NCc1ccc2c(c1)CN(C1CCC(=O)NC1=O)C2=O (some centres unmarked) [Example 101] | – | –
32 | 82 | 182 | 41 | 189 | C[C@H]1CC[C@H](NCc2ccc3c(c2)CN(C2CCC(=O)NC2=O)C3=O)CC1 (some centres unmarked) [Example 47] | – | –
33 | 79 | 46 | 55 | 64 | O=C1CCC(N2Cc3cc(CNC4CCC5(CCCC5)CC4)ccc3C2=O)C(=O)N1 (centres unmarked) [Example 84] | – | –
34 | 78 | 453 | 51 | 335 | CC1(C)C[C@]2(CC[C@@H](NCc3ccc4c(c3)CN(C3CCC(=O)NC3=O)C4=O)CC2)CO1 (some centres unmarked) [Example 118] | – | –
35 | 88 | 198 | 49 | 216 | CC1(C)C[C@]2(CC[C@H](NCc3ccc4c(c3)CN(C3CCC(=O)NC3=O)C4=O)CC2)CO1 (some centres unmarked) [Example 117] | – | –
36 | 67 | 1300 | 45 | 762 | O=C1CCC(N2Cc3cc(CN[C@H]4CCC[C@@H](O)C4)ccc3C2=O)C(=O)N1 (some centres unmarked) [Example 81] | – | –
37 | 81 | 67 | 66 | 50 | O=C1CCC(N2Cc3cc(CNC4CCC5(CC4)CC5)ccc3C2=O)C(=O)N1 (centres unmarked) [Example 58] | – | –
